Data: ChEMBL document CHEMBL1126437, “Synthesis and cytotoxicity of enantiomeric pairs of duocarmycin a and its 2-epimer” (Bioorg Med Chem Lett, 1992)
Converted amounts (≈) assume the structure as drawn.

Test system: P388
Assay: In vitro evaluation for cytotoxicity against P388 murine leukemia.
Type: functional, cell-based, Mus musculus

Compound | IC50 (p388) | IC50 (Mus musculus, P388, read-out: IC50)
COC(=O)[C@]1(C)N=C2C(=O)C=C3N(C(=O)c4cc5cc(OC)c(OC)c(OC)c5[nH]4)C[C@H]4C[C@@]34C2=C1O | 0.002 ng/mL (≈ 0.00394 nM) | –
COC(=O)[C@@]1(C)N=C2C(=O)C=C3N(C(=O)c4cc5cc(OC)c(OC)c(OC)c5[nH]4)C[C@@H]4C[C@]34C2=C1O | – | 0.3 ng/mL (≈ 0.591 nM)
